Assay results reported in PMC8842277, “Highly Antiproliferative Latonduine and Indolo[2,3-c]quinoline Derivatives: Complex Formation with Copper(II) Markedly Changes the Kinase Inhibitory Profile” (Journal of Medicinal Chemistry, 2022).

What was measured:
[1] = Aqueous stability in HEPES and PBS buffer by UV–vis; assay type: physicochemical; settings: pH 7.40, 10 mM HEPES or PBS, several hours
Procedure: Prior to the biological assays, the aqueous stability of selected compounds (HL^4, 4, HL^8, and 8) was measured as a function of time by UV–vis spectrophotometry at pH = 7.40 in 10 mM HEPES in PBS and in blood serum diluted by factor 3 (dilutions were made in HEPES and in PBS as well). […] This process took several hours, and it was in all cases less pronounced in the PBS buffer than in the HEPES medium.
Aqueous stability of 4, 8, and HL^4 was investigated in phosphate-buffered saline (PBS) and 10 mM HEPES buffers and in three-times diluted blood serum (Sigma Aldrich, from human male AB plasma) at pH = 7.40. The concentration of the compounds was between 5 and 10 μM. Blood serum was filtered on a 1.25 μm polyethersulfone membrane syringe filter and diluted with 10 mM HEPES or PBS buffer.

Colo320 cells = experiment: Apoptosis assay, Annexin-V-FITC/PI flow cytometry; settings: 3 h induction
Procedure: An apoptosis assay was performed by flow cytometry via the analysis of multidrug-resistant Colo320 cells stained with Annexin-V-FITC and propidium iodide (PI).
Colo320 cells were treated at the indicated concentration of the compounds. The dual parametric dot plots combining Annexin-V (FL1) and PI (FL3) fluorescence show the viable cell population in the lower left quadrant Annexin-V–/PI– (Q4), the early apoptotic cells in the lower right quadrant Annexin-V+/PI– (Q3), and the late apoptotic and necrotic cells in the upper right quadrant Annexin-V+/PI+ (Q2).
The assay was carried out for selected compounds using an Annexin V-FITC Apoptosis Detection Kit (cat. no. APOAF-50TST) from Sigma according to the manufacturer’s instructions. The concentration of the Colo320 cell suspension was adjusted to approximately 0.5 × 10^6 cells/mL in an RPMI 1640 medium, and the cell suspension was distributed in 1 mL of aliquots into a 24-well plate and then incubated overnight at 37 °C and 5% CO2. On the following day, the medium was removed and replaced by 1 mL of RPMI medium containing the compounds except the control samples. […] After the incubation period, the samples were washed with PBS and fresh RPMI 1640 medium was added to the samples. The cells were incubated overnight at 37 °C and 5% CO2. The next day, 200 μL of 0.25% Trypsin (Trypsin-Versen) was added to the samples until cells appeared detached followed by the addition of 400 μL of RPMI 1640 medium supplemented with 10% bovine serum. The cells were collected in Eppendorf tubes and centrifuged at 2000g for 2 min. The harvested cells were resuspended in fresh serum-free RPMI 1640 culture medium. After this step, the apoptosis assay was carried out according to the instructions of the manufacturer. The fluorescence was analyzed immediately using a ParTec CyFlow flow cytometer (Partec GmbH, Münster, Germany).
• Apoptosis and DNA binding studies […]

calf thymus DNA (ct-DNA) = experiment: Ethidium bromide displacement and fluorescence lifetime; assay type: binding; settings: 10 μM ct-DNA, 5 μM EtBr, 10 mM HEPES, pH 7.40
Procedure: The interaction of 4 and 8 and HL^4 and HL^8 with ct-DNA was investigated by spectrofluorometry in ethidium bromide (EtBr) displacement studies. EtBr is a fluorescent probe, and its fluorescence intensity increases upon intercalation into the DNA helix. […] Decrease in the fluorescence may indicate (i) the displacement of EtBr or (ii) (partial) quenching of the fluorescence of the bound probe. In order to separate these processes, fluorescence lifetime measurements were carried out. […] In addition, they provided evidence that the two copper(II) complexes bind to ct-DNA. However, complex 8 replaced EtBr more effectively than 4. […]
Fluorescence measurements were carried out on a Fluoromax (Horiba Jobin Yvon) fluorometer. […] The excitation wavelengths were 510 or 455 nm, and the fluorescence emission was measured in the range 530–750 nm. Corrections for self-absorbance and inner filter effect were done according to our former work.[106] Fluorescence lifetime was measured on the same fluorometer equipped with a DeltaHub time-correlated single photon counting (TCSPC) controller using a NanoLED light source N-455 (Horiba Jobin Yvon). […] The fluorescence intensity decay over time is described by a sum of exponentials, [drawing 3] […] Fractional intensities were calculated as described in our former work.[105] […]

| Structure (SMILES) | Behaviour in buffer solutions over time [1] | Cell death % Q1 (Colo320 cells; 0.25 µM) [%] | Early apoptosis % Q3 (Colo320 cells; 0.25 µM) [%] | Late apoptosis and necrosis % Q2 (Colo320 cells; 0.25 µM) [%] | Cell death % Q1 (Colo320 cells; 0.5 µM) [%] | Early apoptosis % Q3 (Colo320 cells; 0.5 µM) [%] | Late apoptosis and necrosis % Q2 (Colo320 cells; 0.5 µM) [%] | Effect on fluorescence of the EtBr–ct-DNA system (calf thymus DNA (ct-DNA)) | Cell death % Q1 (Colo320 cells; 2 µM) [%] | Early apoptosis % Q3 (Colo320 cells; 2 µM) [%] | Late apoptosis and necrosis % Q2 (Colo320 cells; 2 µM) [%] |
| --- | --- | --- | --- | --- | --- | --- | --- | --- | --- | --- | --- |
| CC(=NNC1=NCc2ccccc2-c2c1[nH]c1ccc(Br)cc21)c1ccc(CN2CCOCC2)cn1.[Cl][Cu][Cl] [compound 4, CuCl2(HL^4)·0.5H2O] | slow precipitation | 5.10 | 7.48 | 12.7 | 4.76 | 5.18 | 11.6 | decreased the emission intensity |  |  |  |
| CC(=NNc1nc2ccccc2c2c1[nH]c1ccc(Br)cc12)c1ccc(CN2CCOCC2)cn1.[Cl][Cu][Cl] [compound 8, CuCl2(HL^8)·H2O] | slow precipitation |  |  |  | 4.52 | 6.01 | 12.1 | decreased the emission intensity | 1.76 | 6.91 | 6.97 |
